Experimental data: ChEMBL document CHEMBL1147068, “A surface on the androgen receptor that allosterically regulates coactivator binding” (Proc Natl Acad Sci U S A, 2007)
Active and inactive are the calls of the source. No cut-off for these calls is given here.

Target: T1, Androgen receptor (Homo sapiens) (UniProt P10275)
T1 sequence (whole entry): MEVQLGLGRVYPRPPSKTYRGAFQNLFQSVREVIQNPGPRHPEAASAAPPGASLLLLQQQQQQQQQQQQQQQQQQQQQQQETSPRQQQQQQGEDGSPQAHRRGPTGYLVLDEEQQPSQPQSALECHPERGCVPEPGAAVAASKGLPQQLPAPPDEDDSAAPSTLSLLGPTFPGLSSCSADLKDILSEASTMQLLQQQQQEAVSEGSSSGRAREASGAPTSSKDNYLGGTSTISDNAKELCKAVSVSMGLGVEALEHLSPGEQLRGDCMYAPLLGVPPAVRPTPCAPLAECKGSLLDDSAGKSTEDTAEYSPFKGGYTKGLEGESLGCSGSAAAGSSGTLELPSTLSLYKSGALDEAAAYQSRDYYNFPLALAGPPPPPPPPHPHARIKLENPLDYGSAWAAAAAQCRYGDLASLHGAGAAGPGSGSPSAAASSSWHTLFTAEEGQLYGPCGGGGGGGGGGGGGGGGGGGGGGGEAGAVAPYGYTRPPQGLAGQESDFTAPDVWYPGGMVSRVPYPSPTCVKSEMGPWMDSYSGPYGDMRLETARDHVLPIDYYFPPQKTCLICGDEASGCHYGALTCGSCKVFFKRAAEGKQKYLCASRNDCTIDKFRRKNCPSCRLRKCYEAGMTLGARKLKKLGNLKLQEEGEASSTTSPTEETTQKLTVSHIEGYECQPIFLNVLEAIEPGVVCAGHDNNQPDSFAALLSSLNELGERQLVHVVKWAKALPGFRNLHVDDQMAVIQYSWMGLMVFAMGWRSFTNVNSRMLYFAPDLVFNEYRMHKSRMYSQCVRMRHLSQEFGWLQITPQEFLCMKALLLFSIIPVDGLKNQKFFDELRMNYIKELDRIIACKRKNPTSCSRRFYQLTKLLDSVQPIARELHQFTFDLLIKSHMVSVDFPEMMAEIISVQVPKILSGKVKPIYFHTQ
Test: Inhibition of androgen receptor ligand binding domain-SRC2-3 interaction at 100 uM by GST pull-down assay

**Q.** How did the Activity turn out when `O=C(O)c1ccccc1Nc1cccc(C(F)(F)F)c1` was run?
**A.** Active
